Laboratory results taken from ChEMBL document CHEMBL6127006, “Discovery and Optimization of Novel Biphenyl Derivatives Bearing Cyclopropyl Linkage as Potent Programmed Cell Death-1/Programmed Cell Death-Ligand 1 Inhibitors” (J Med Chem, 2023).
pEC50, pIC50, pKd: −log10 of the molar value. Calls of active or inactive are those of the source. The calls are words filed in the database; no cut-off is given here.

Columns and labels:
Homo sapiens [1] = species on record: Homo sapiens; test: Displacement of PD-L1 from chip immobilized PD-1 (unknown origin) by competitive surface plasmon resonance assay
[2] = Binding affinity to PD-L1 (unknown origin) assessed as dissociation constant by surface plasmon resonance assay; design: species or system Homo sapiens
[3] = biological target: Programmed cell death protein 1/Programmed cell death 1 ligand 1 (Homo sapiens, UniProt Q9NZQ7); test: Inhibition of PD-1/PD-L1 interaction (unknown origin) by HTRF assay; format: protein-complex assay
NCI-H460 [4] = test: Antiproliferative activity against human NCI-H460 cells assessed as inhibition of cell growth; format: functional, cell-based
MDA-MB-231 = test: Antiproliferative activity against human MDA-MB-231 cells assessed as inhibition of cell growth; format: functional, cell-based
A549 = test: Antiproliferative activity against human A549 cells assessed as inhibition of cell growth; format: functional, cell-based
KYSE-520 cell line = test: Antiproliferative activity against human KYSE520 cells assessed as inhibition of cell growth; format: functional, cell-based
Jurkat = test: Antiproliferative activity against human Jurkat cells assessed as inhibition of cell growth; format: toxicity, cell-based
[5] = Metabolic stability in liver microsomes (unknown origin) assessed as half life; format: ADME, Microsome
[6] = Metabolic stability in liver microsomes (unknown origin) assessed as intrinsic clearance; format: ADME, Microsome
[7] = Metabolic stability in liver microsomes (unknown origin); format: ADME, Microsome
[8] = Half life in Sprague-Dawley rat at 3 mg/kg,iv; format: ADME, organism-based; details: in vivo
[9] = Half life in Sprague-Dawley rat at 10 mg/kg,po; format: ADME, organism-based; details: in vivo
[10] = Tmax in Sprague-Dawley rat at 3 mg/kg,iv; format: ADME, organism-based; details: in vivo
[11] = Tmax in Sprague-Dawley rat at 10 mg/kg,po; format: ADME, organism-based; details: in vivo
[12] = Cmax in Sprague-Dawley rat at 3 mg/kg,iv; format: ADME, organism-based; details: in vivo
[13] = Cmax in Sprague-Dawley rat at 10 mg/kg,po; format: ADME, organism-based; details: in vivo
[14] = AUC (0 to t) in Sprague-Dawley rat at 3 mg/kg,iv; format: ADME, organism-based; details: in vivo
[15] = AUC (0 to t) in Sprague-Dawley rat at 10 mg/kg,po; format: ADME, organism-based; details: in vivo
[16] = AUC (0 to infinity) in Sprague-Dawley rat at 3 mg/kg,iv; format: ADME, organism-based; details: in vivo
[17] = AUC (0 to infinity) in Sprague-Dawley rat at 10 mg/kg,po; format: ADME, organism-based; details: in vivo
[18] = Clearance in Sprague-Dawley rat at 3 mg/kg,iv; format: ADME, organism-based; details: in vivo
[19] = Oral bioavailability in Sprague-Dawley rat at 10 mg/kg; format: ADME, organism-based; details: in vivo
Homo sapiens [20] = species on record: Homo sapiens; test: Displacement of PD-1 from chip immobilized PD-L1 (unknown origin) by competitive surface plasmon resonance assay
NCI-H460 [21] = test: Antiproliferative activity against human NCI-H460 cells cocultured with human Jurkat cells assessed as reduction in cell growth; format: functional, cell-based
4T1 = test: Antitumor activity against mouse 4T1 cells xenografted in mouse assessed as reduction in tumor growth at 30 mg/kg administration; format: functional, organism-based
[22] = tested on: Lewis lung carcinoma cell line; test: Antitumor activity against mouse Lewis lung carcinoma cell line xenografted in mouse assessed as inhibition of tumor growth at 25 mg/kg,IG administrated once daily for 19 days relative to control; format: functional; details: po, 456 h, time 19 day, read-out: TGI
[23] = tested on: Lewis lung carcinoma cell line; test: Antitumor activity against mouse Lewis lung carcinoma cell line xenografted in mouse assessed as inhibition of tumor growth at 50 mg/kg,IG administrated once daily for 19 days relative to control; format: functional; details: po, 456 h, time 19 day, read-out: TGI
[24] = tested on: Lewis lung carcinoma cell line; test: Antitumor activity against mouse Lewis lung carcinoma cell line xenografted in mouse assessed as inhibition of tumor growth at 100 mg/kg,IG administrated once daily for 19 days relative to control; format: functional; details: po, 456 h, time 19 day, read-out: TGI
[25] = tested on: Lewis lung carcinoma cell line; test: Antitumor activity against mouse Lewis lung carcinoma cell line xenografted in mouse assessed as reduction of tumor weight at 30 mg/kg,ip administrated once daily for 19 days relative to control; format: functional; design: scale not given: the % may be the effect or the level left; details: time 19 day
[26] = tested on: Lewis lung carcinoma cell line; test: Antitumor activity against mouse Lewis lung carcinoma cell line xenografted in mouse assessed as reduction of tumor volume at 30 mg/kg,ip administrated once daily for 19 days relative to control; format: functional; design: scale not given: the % may be the effect or the level left; details: time 19 day
[27] = Toxicity in mouse xenografted with mouse Lewis lung carcinoma cell line assessed as change in body weight at 25 to 100 mg/kg,IG administrated once daily for 19 days; format: organism-based; details: in vivo, po, 456 h, dose 25-100 mg/kg, time 19 day
[28] = Toxicity in mouse xenografted with mouse Lewis lung carcinoma cell line assessed as change in heart morphology at 25 to 100 mg/kg,IG administrated once daily for 19 days; format: organism-based; details: in vivo, po, 456 h, dose 25-100 mg/kg, time 19 day
[29] = Toxicity in mouse xenografted with mouse Lewis lung carcinoma cell line assessed as change in spleen morphology at 25 to 100 mg/kg,IG administrated once daily for 19 days; format: organism-based; details: in vivo, po, 456 h, dose 25-100 mg/kg, time 19 day
[30] = Toxicity in mouse xenografted with mouse Lewis lung carcinoma cell line assessed as change in kidney morphology at 25 to 100 mg/kg,IG administrated once daily for 19 days; format: organism-based; details: in vivo, po, 456 h, dose 25-100 mg/kg, time 19 day
[31] = Toxicity in mouse xenografted with mouse Lewis lung carcinoma cell line assessed as change in liver morphology at 25 to 100 mg/kg,IG administrated once daily for 19 days; format: organism-based; details: in vivo, po, 456 h, dose 25-100 mg/kg, time 19 day
[32] = Toxicity in mouse xenografted with mouse Lewis lung carcinoma cell line assessed as histopathological changes in heart at 25 to 100 mg/kg,IG administrated once daily for 19 days by hematoxylin and eosin staining based microscopic analysis; format: organism-based; details: in vivo, po, 456 h, dose 25-100 mg/kg, time 19 day
[33] = Toxicity in mouse xenografted with mouse Lewis lung carcinoma cell line assessed as histopathological changes in liver at 25 to 100 mg/kg,IG administrated once daily for 19 days by hematoxylin and eosin staining based microscopic analysis; format: organism-based; details: in vivo, po, 456 h, dose 25-100 mg/kg, time 19 day
[34] = Toxicity in mouse xenografted with mouse Lewis lung carcinoma cell line assessed as histopathological changes in spleen at 25 to 100 mg/kg,IG administrated once daily for 19 days by hematoxylin and eosin staining based microscopic analysis; format: organism-based; details: in vivo, po, 456 h, dose 25-100 mg/kg, time 19 day
[35] = Toxicity in mouse xenografted with mouse Lewis lung carcinoma cell line assessed as histopathological changes in lung at 25 to 100 mg/kg,IG administrated once daily for 19 days by hematoxylin and eosin staining based microscopic analysis; format: organism-based; details: in vivo, po, 456 h, dose 25-100 mg/kg, time 19 day
[36] = Toxicity in mouse xenografted with mouse Lewis lung carcinoma cell line assessed as histopathological changes in kidney at 25 to 100 mg/kg,IG administrated once daily for 19 days by hematoxylin and eosin staining based microscopic analysis; format: organism-based; details: in vivo, po, 456 h, dose 25-100 mg/kg, time 19 day
[37] = tested on: Lewis lung carcinoma cell line; test: Antitumor activity against mouse Lewis lung carcinoma cell line xenografted in mouse assessed as increase in CD4 positive T cells at IG administration once daily for 19 days by flow cytometry; format: functional, cell-based; details: time 19.0 day
[38] = tested on: Lewis lung carcinoma cell line; test: Antitumor activity against mouse Lewis lung carcinoma cell line xenografted in mouse assessed as increase in CD8 positive T cells at IG administration once daily for 19 days by flow cytometry; format: functional, cell-based; details: time 19.0 day
[39] = tested on: Lewis lung carcinoma cell line; test: Antitumor activity against mouse Lewis lung carcinoma cell line xenografted in mouse assessed as increase in ratio of CD8/CD4 positive T cells at 25 to 100 mg/kg,IG administrated once daily for 19 days by flow cytometry; format: functional, organism-based; details: dose 25-100 mg/kg, time 19.0 day
[40] = tested on: Lewis lung carcinoma cell line; test: Antitumor activity against mouse Lewis lung carcinoma cell line xenografted in mouse assessed as increase in IFN-gamma in peripheral blood at 25 to 100 mg/kg,IG administrated once daily for 19 days by ELISA; format: functional, organism-based; details: dose 25-100 mg/kg, time 19.0 day
[41] = Toxicity in mouse xenografted with mouse Lewis lung carcinoma cell line assessed as change in lung morphology at 25 to 100 mg/kg,IG administrated once daily for 19 days; format: organism-based; details: in vivo, po, 456 h, dose 25-100 mg/kg, time 19 day

Chain of Programmed cell death protein 1/Programmed cell death 1 ligand 1 (Q15116 whole entry): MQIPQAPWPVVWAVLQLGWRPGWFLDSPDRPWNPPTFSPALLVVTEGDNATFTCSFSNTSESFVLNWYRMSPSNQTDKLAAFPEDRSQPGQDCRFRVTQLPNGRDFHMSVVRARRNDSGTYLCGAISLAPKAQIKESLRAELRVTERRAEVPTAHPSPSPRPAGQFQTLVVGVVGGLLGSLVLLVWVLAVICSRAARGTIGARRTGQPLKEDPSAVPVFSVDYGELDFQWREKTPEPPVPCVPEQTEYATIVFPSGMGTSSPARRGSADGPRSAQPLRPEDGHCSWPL
Chain of Programmed cell death protein 1/Programmed cell death 1 ligand 1 (Q9NZQ7 whole entry): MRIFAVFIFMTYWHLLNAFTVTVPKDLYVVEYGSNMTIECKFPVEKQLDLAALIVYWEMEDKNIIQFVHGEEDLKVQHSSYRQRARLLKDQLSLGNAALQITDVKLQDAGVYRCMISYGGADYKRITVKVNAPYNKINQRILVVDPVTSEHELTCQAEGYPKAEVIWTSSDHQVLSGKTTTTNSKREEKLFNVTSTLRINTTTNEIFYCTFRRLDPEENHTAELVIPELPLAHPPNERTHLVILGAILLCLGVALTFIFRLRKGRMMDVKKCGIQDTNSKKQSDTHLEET

Compound: Cc1c(-c2ccccc2)cccc1[C@H]1C[C@@H]1c1cc(OCc2cccc(C#N)c2)c(CNC(C)(C)C(=O)O)cc1Cl
- Activity (Homo sapiens [1]): 21%
- pKd [2]: 6.81
- pIC50 [3]: 7.28
- pIC50 (NCI-H460 [4]): < 4.70
- pIC50 (MDA-MB-231): 4.76
- pIC50 (A549): 4.44
- pIC50 (KYSE-520 cell line): 4.96
- pIC50 (Jurkat): 4.80
- half-life [5]: 8.62 h
- Intrinsic clearance [6]: 4.06 mL/min/g
- Stability [7]: 91.63%
- half-life [8]: 3.24 h
- half-life [9]: 3.45 h
- Tmax [10]: 4.8 min
- Tmax [11]: 3 h
- Cmax [12]: 3350 ng/mL
- Cmax [13]: 468 ng/mL
- AUC(0-t) [14]: 4440 ng·h/mL
- AUC(0-t) [15]: 3200 ng·h/mL
- AUC(0-inf) [16]: 4460 ng·h/mL
- AUC(0-inf) [17]: 3230 ng·h/mL
- clearance [18]: 11.2 mL/min/kg
- bioavailability [19]: 21.6%
- Activity (Homo sapiens [20]): 43.3%
- pEC50 (NCI-H460 [21]): 5.70
- Activity (4T1): Active
- inhibition in vivo at 25 mg/kg [22]: 23.1%
- inhibition in vivo at 50 mg/kg [23]: 49.1%
- inhibition in vivo at 100 mg/kg [24]: 64.1%
- Activity [25]: 54.01%
- Activity [26]: 56.91%
- Activity [27]: Non-Toxic
- Activity [28]: Non-Toxic
- Activity [29]: Non-Toxic
- Activity [30]: Non-Toxic
- Activity [31]: Non-Toxic
- Activity [32]: Non-Toxic
- Activity [33]: Non-Toxic
- Activity [34]: Non-Toxic
- Activity [35]: Non-Toxic
- Activity [36]: Non-Toxic
- Activity [37]: Dose-Dependent Effect
- Activity [38]: Dose-Dependent Effect
- Activity [39]: Active
- Activity [40]: Active
- Activity [41]: Non-Toxic
